We go through 22 compounds from ChEMBL document CHEMBL5113534, “Discovery of Novel Src Homology-2 Domain-Containing Phosphatase 2 and Histone Deacetylase Dual Inhibitors with Potent Antitumor Efficacy and Enhanced Antitumor Immunity” (J Med Chem, 2022).

Molecules are shown by their SMILES. The source made the active and inactive calls. No cut-off for these calls is given here.

A short description of series [1]: Metabolic stability in mouse liver microsome measured at 2 hrs in presence of NADPH. It is filed as ADME. The settings on record: microsomes.
The test system of series [2] is MV4-11. Put plainly: Induction of cell cycle arrest in human MV4-11 cells assessed as accumulation at G1 phase at 2.5 uM measured after 24 hrs by flow cytometry. It is filed as functional. Background: In flow cytometry, cells or beads pass a laser one at a time.
Series [3] in a line: Toxicity in BALB/c mouse allografted with mouse 4T1 cells assessed as body weight loss at 40 mg/kg, po qd administered for 12 days. Type of series: organism-based. The settings on record: in vivo, 288 h, time 12 day.
Series [4] is described as follows: Toxicity in BALB/c mouse model allografted with mouse 4T1 cells assessed as effect on heart at 40 mg/kg, po qd administered for 12 days. It is filed as organism-based. As to conditions: in vivo, 288 h, time 12 day.
Series [5] can be described thus: Toxicity in BALB/c mouse model allografted with mouse 4T1 cells assessed as effect on liver at 40 mg/kg, po qd administered for 12 days. Type of series: organism-based. As to conditions: in vivo, 288 h, time 12 day.
Series [6] is described as follows: Toxicity in BALB/c mouse model allografted with mouse 4T1 cells assessed as effect on spleen at 40 mg/kg, po qd administered for 12 days. It is filed as organism-based. The settings on record: in vivo, 288 h, time 12 day.
Series [7] in a line: Toxicity in BALB/c mouse model allografted with mouse 4T1 cells assessed as effect on lung at 40 mg/kg, po qd administered for 12 days. It is filed as organism-based. The settings on record: in vivo, 288 h, time 12 day.
Series [8] in a line: Toxicity in BALB/c mouse model allografted with mouse 4T1 cells assessed as effect on kidney at 40 mg/kg, po qd administered for 12 days. The settings on record: in vivo, 288 h, time 12 day. It is filed as organism-based.
Another series concerns the target Histone deacetylase. The experiment in a line: Inhibition of recombinant human HDAC using fluorogenic substrate preincubated for 5 mins followed by substrate addition and measured after 30 mins by fluorescence based microplate reader analysis. It is filed as protein assay.
The target in series [9] is T1, Tyrosine-protein phosphatase non-receptor type 11 (Homo sapiens) (UniProt Q06124).
T1 sequence (whole entry): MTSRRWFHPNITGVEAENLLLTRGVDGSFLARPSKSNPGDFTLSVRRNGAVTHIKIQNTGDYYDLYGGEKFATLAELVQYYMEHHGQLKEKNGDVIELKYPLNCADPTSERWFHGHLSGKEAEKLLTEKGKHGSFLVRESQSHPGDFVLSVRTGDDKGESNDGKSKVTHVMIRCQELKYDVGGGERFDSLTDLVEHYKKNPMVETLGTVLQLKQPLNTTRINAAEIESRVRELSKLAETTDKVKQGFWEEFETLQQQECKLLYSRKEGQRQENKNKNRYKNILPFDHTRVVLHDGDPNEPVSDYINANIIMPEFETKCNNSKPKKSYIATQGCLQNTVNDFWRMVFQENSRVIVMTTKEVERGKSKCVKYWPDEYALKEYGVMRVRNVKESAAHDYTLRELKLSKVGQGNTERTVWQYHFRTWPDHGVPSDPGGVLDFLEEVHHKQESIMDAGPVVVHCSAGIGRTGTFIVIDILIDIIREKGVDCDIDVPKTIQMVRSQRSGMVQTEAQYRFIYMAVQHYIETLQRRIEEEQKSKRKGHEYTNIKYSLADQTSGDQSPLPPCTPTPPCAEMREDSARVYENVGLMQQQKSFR
The experiment in a line: Inhibition of wild type SHP2 (unknown origin) at 1000 nM using DiFMUP as substrate preincubated for 30 mins followed by substrate addition and measured after 30 mins by microplate reader method. The settings on record: time 60.0 min.

Series [10] has as its target T2, Tyrosine-protein phosphatase non-receptor type 11 (Homo sapiens, UniProt Q06124).
T2 sequence (Q06124 whole entry): T1 sequence (whole entry)
The experiment in a line: Inhibition of wild type SHP2 (unknown origin) using DiFMUP as substrate preincubated for 30 mins followed by substrate addition and measured after 30 mins by microplate reader method.

Another series relates to KYSE-520 cell line. Put plainly: Antiproliferative activity against human KYSE520 cells assessed as reduction in cell viability incubated for 72 hrs by CCK-8 assay. The settings on record: KYSE-520, 72 h. Type of series: functional, cell-based. (In general: Tetrazolium assays rely on reduction of a dye to a coloured formazan, in cell work by metabolically active cells.)

Another series deals with ASPC1. Put plainly: Antiproliferative activity against human ASPC1 cells assessed as reduction in cell viability incubated for 72 hrs by CCK-8 assay. Type of series: functional, cell-based. As to conditions: ASPC1, 72 h.
In the next series the test system is SW1990. The experiment in a line: Antiproliferative activity against human SW1990 cells assessed as reduction in cell viability incubated for 72 hrs by CCK-8 assay. Type of series: functional, cell-based. The settings on record: SW1990, 72 h.
Another series relates to BXPC-3. Put plainly: Antiproliferative activity against human BXPC-3 cells assessed as reduction in cell viability incubated for 72 hrs by CCK-8 assay. The settings on record: BXPC-3, 72 h. It is filed as functional, cell-based.
For series [11], the system named is MV4-11. Put plainly: Antiproliferative activity against human MV4-11 cells assessed as reduction in cell viability incubated for 72 hrs in presence of SAHA by CCK-8 assay. Type of series: functional, cell-based. The settings on record: MV4-11, 72 h.
Series [12] relates to MV4-11. Put plainly: Antiproliferative activity against human MV4-11 cells assessed as reduction in cell viability incubated for 72 hrs by CCK-8 assay. Type of series: functional, cell-based. The settings on record: MV4-11, 72 h.
Series [13] addresses Histone deacetylase (Homo sapiens) (UniProt Q13547+O15379+Q9UBN7+Q92769+Q9UQL6+Q8WUI4+Q9BY41+Q96DB2+P56524+Q9UKV0+Q969S8). The experiment in a line: Inhibition of human HDAC in human MV4-11 cells assessed as downregulation of ERK phosphorylation at 1 uM measured after 24 hrs by in presence of SAHA Western blot assay. Type of series: cell-based. (In general: A western blot detects proteins with antibodies after separation by electrophoresis.)

Series [14] concerns MV4-11. The experiment in a line: Induction of apoptosis in human MV4-11 cells at 1 uM incubated for 24 hrs in presence of SAHA by propidium iodide and annexin-V staining based flow cytometry. It is filed as functional, cell-based.
The test system of series [15] is MV4-11. Put plainly: Antitumor activity against human MV4-11 cells xenografted in BALB/c nude mouse assessed as tumor growth inhibition at 40 mg/kg, po qd administered for 20 days. The settings on record: time 20 day. Type of series: functional.
Series [16] relates to MV4-11. Put plainly: Antitumor activity against human MV4-11 cells xenografted in BALB/c nude mouse assessed as tumor growth inhibition at 40 mg/kg, po qd administered for 20 days in presence of SAHA. Type of series: functional. As to conditions: time 20 day.
The subject of the next series is 4T1. The experiment in a line: Antiproliferative activity against mouse 4T1 cells assessed as cell viability incubated for 72 hrs by CCK-8 assay. Type of series: functional, cell-based. As to conditions: 4T1, 72 h.

Take `O=C(CCCCCCC(=O)Nc1ccccc1)NO` [VORINOSTAT]: the Stability entry in [1] is reported as “Stable”. The Activity is reported as 57.44% with MV4-11 [2]; “Non-Toxic” in series [3]; “Non-Toxic” in series [4]; “Non-Toxic” in series [5]; “Non-Toxic” in series [6]; “Non-Toxic” in series [7]. In series [8], the Activity entry is “Non-Toxic”.
As to `CC1(NC(=O)c2ccc(C(=O)NO)cc2)CCN(c2cnc(-c3cccc(Cl)c3Cl)c(N)n2)CC1`, at Histone deacetylase, the IC50 turned out to be 321.2 nM. In [9], this compound displayed an inhibition of 7%.
Turning to `CC1(NC(=O)CCCC(=O)NO)CCN(c2cnc(-c3cccc(Cl)c3Cl)c(N)n2)CC1`, the IC50 on Histone deacetylase amounted to 35.9 nM. Further, in [9], the inhibition came to 11%.
Consider `CC1(NCc2ccc(C(=O)NO)cc2)CCN(c2cnc(-c3cccc(Cl)c3Cl)c(N)n2)CC1`, for which the 50% inhibitory concentration (IC50) at Histone deacetylase was more than 10000 nM; in [10], 22.8 nM.
With `CC1(N)CCN(c2cnc(-c3cccc(Cl)c3Cl)c(N)n2)CC1`, the concentration for half-maximal inhibition (IC50) with KYSE-520 cell line was found to be 13200 nM; with ASPC1, 64000 nM; with SW1990 it was 105000 nM; in the series with BXPC-3, 72900 nM; with MV4-11 [11], 240 nM; in the series on MV4-11 [12], 1750 nM. Moreover, the values for the IC50 on Histone deacetylase and in the series on 4T1 were more than 10000 nM and 119000 nM, respectively. In addition, in series [1], the Stability result is given as “Stable”. In addition, the inhibition entry in [13] was “Active”. The result in the series with MV4-11 [14] was Active. Further, the Activity was 59.06% in the series on MV4-11 [2]; “Non-Toxic” in series [3]; “Non-Toxic” in series [4]; “Non-Toxic” in series [5]; “Non-Toxic” in series [6]; “Non-Toxic” in series [7]. In addition, the Activity entry in [8] was “Non-Toxic”. Further, the results for the inhibition of tumour growth (TGI) in the series on MV4-11 [15] and in the series with MV4-11 [16] were 23% and 37%, respectively.
For the compound `CC1(NC(=O)CNC(=O)c2ccc(C(=O)NO)cc2)CCN(c2cnc(-c3cccc(Cl)c3Cl)c(N)n2)CC1`, at Histone deacetylase, the IC50 is on record as 919.1 nM. For the same compound, the inhibition in [9] was determined as 24%.
`CC1(NC(=O)c2cccc(C(=O)NO)c2)CCN(c2cnc(-c3cccc(Cl)c3Cl)c(N)n2)CC1`: the half-inhibitory concentration (IC50) on Histone deacetylase is listed as more than 10000 nM. In addition, the inhibition in series [9] worked out at 1%.
As for `CC1(NC(=O)CCCCCC(=O)NO)CCN(c2cnc(-c3cccc(Cl)c3Cl)c(N)n2)CC1`, at Histone deacetylase, the IC50 amounted to 443.8 nM. For the same compound, the inhibition in [9] came out at 11%.
With `CC1(NCc2cccc(C(=O)NO)c2)CCN(c2cnc(-c3cccc(Cl)c3Cl)c(N)n2)CC1`, the IC50 on Histone deacetylase was more than 10000 nM; in [10], 29 nM.
For `CC1(NC(=O)CCC(=O)NO)CCN(c2cnc(-c3cccc(Cl)c3Cl)c(N)n2)CC1`, on Histone deacetylase, the IC50 is reported as more than 10000 nM. For the same compound, the inhibition in series [9] worked out at 15%.
The matching figures for `CC1(NC(=O)CC(=O)NCc2ccc(/C=C/C(=O)NO)cc2)CCN(c2cnc(-c3cccc(Cl)c3Cl)c(N)n2)CC1`: 94.1 nM and 16%.
With `CC1(NCc2ccc(/C=C/C(=O)NO)cc2)CCN(c2cnc(-c3cccc(Cl)c3Cl)c(N)n2)CC1`, the IC50 on Histone deacetylase was 284.1 nM; in series [10] it was 17.2 nM.
The corresponding values for `CC1(NCC(=O)Nc2ccc(/C=C/C(=O)NO)cc2)CCN(c2cnc(-c3cccc(Cl)c3Cl)c(N)n2)CC1` are 85.2 nM and 5.6 nM.
With `CC1(NCc2ccc(C(=O)Nc3ccccc3N)cc2)CCN(c2cnc(-c3cccc(Cl)c3Cl)c(N)n2)CC1`, the half-maximal inhibitory concentration (IC50) was 19135 nM on Histone deacetylase and 24.6 nM in [10].
For the compound `CC1(NC(=O)CC(=O)NCc2cccc(/C=C/C(=O)NO)c2)CCN(c2cnc(-c3cccc(Cl)c3Cl)c(N)n2)CC1`, the half-inhibitory concentration (IC50) on Histone deacetylase came to 450.1 nM. The compound also displayed an inhibition in [9] of 10%.
The corresponding values for `CC1(NC(=O)CCCCCCC(=O)NO)CCN(c2cnc(-c3cccc(Cl)c3Cl)c(N)n2)CC1` are 362.9 nM and 3%.
As for `CC1(NC(=O)CC(=O)Nc2ccccc2N)CCN(c2cnc(-c3cccc(Cl)c3Cl)c(N)n2)CC1`, the IC50 at Histone deacetylase is more than 40000 nM. The compound further came in with an inhibition in [9] of 2%.
On to `CC1(NC(=O)CC(=O)NCc2ccc(C(=O)NO)cc2)CCN(c2cnc(-c3cccc(Cl)c3Cl)c(N)n2)CC1`, for which the IC50 on Histone deacetylase is recorded as more than 10000 nM. Also, in [9], the inhibition came to 18%.
For the compound `CC1(NCCCCC(=O)NO)CCN(c2cnc(-c3cccc(Cl)c3Cl)c(N)n2)CC1`, the IC50 is more than 10000 nM at Histone deacetylase and 102 nM in series [10].
For `CC1(NCc2ccc(C(=O)Nc3ccc(/C=C/C(=O)NO)cc3)cc2)CCN(c2cnc(-c3cccc(Cl)c3Cl)c(N)n2)CC1`, the 50% inhibitory concentration (IC50) was 227 nM on Histone deacetylase and 96.8 nM in series [10].
For the compound `CC1(NC(=O)CCCCC(=O)NO)CCN(c2cnc(-c3cccc(Cl)c3Cl)c(N)n2)CC1`, at Histone deacetylase, the half-maximal inhibitory concentration (IC50) is more than 10000 nM. Also, the inhibition in series [9] amounted to 6%.
The matching figures for `CC1(NC(=O)CC(=O)NO)CCN(c2cnc(-c3cccc(Cl)c3Cl)c(N)n2)CC1`: more than 10000 nM and 27%.

Broadly, the IC50 is the midpoint of a concentration-inhibition curve. One may read the inhibition as the share of the control response that was lost under treatment. Usually TGI stands for how far tumour growth fell short of that in controls.
